# Data taken from patent publication US20070276011A1, “Plasminogen Activator Inhibitor-1 Inhibitor” (priority 2003, published 2007).
# Target: recombinant human PAI-1 (Homo sapiens, UniProt P05121)
# Test: PAI-1 inhibitory activity, Test Method A (tPA fluorogenic substrate, Tris buffer pH8.0, 37 C)
# Type: biochemical
# Conditions: test compound 25 μM; Test Method A
# Method: To this solution, 50 μL solution of 400 μM fluogenic substrate for tPA (Pyr-Gly-Arg-MCA, Peptide Institute, Inc.) adjusted with the same buffer was added, and reacted for 30 minutes at 37° C. The reaction was stopped by adding 50 μL of 2% acetic acid. Fluorescence was measured at the excitation wavelength=360 nm, emission wavelength=460 or 465 nm using a microplate reader (SPECTRAFLUOR or GENios) by TECAN. The fluorescence intensities in the presence of the PAI-1 as the control (DMSO) or in the absence of the PAI-1 (tPA alone) were taken as 100% and 0% of PAI-1 activities, respectively, and inhibitory ratios of PAI-1 activities in the presence of the test compound were obtained.
# <Composition of the Tris Buffer (pH8.0)>
# Sequence of recombinant human PAI-1 (P05121 24-402): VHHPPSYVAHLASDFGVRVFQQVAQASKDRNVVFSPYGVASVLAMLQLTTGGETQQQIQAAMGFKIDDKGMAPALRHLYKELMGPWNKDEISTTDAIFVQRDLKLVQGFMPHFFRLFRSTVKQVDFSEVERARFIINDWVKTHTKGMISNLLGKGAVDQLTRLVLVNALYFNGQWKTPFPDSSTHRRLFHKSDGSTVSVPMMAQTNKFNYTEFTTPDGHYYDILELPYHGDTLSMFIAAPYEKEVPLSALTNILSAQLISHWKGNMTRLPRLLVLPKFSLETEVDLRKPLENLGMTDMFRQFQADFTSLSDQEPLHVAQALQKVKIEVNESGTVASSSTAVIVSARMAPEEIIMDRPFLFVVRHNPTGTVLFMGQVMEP
row,Compound,Inhibitory Ratio at 25 μM (%)
1,O=C1SC(=Cc2ccc(O)c(O)c2)C(=O)N1Cc1ccc(Br)cc1 [compound 37],>99
2,COc1cc(C=C2SC(=O)N(Cc3ccc(Cl)c(Cl)c3)C2=O)cc(O)c1O [compound 38],>99
3,O=C1SC(=Cc2cc(O)ccc2[N+](=O)[O-])C(=O)N1Cc1ccc(Cl)c(Cl)c1 [compound 39],>99
4,O=C1SC(=Cc2cc(O)cc(O)c2)C(=O)N1Cc1ccc(Cl)c(Cl)c1 [compound 40],>99
5,O=C1SC(=Cc2ccc(O)c(O)c2)C(=O)N1Cc1cccc(C(F)(F)F)c1 [compound 42],>99
6,O=C1SC(=Cc2ccc(O)c(O)c2)C(=O)N1Cc1ccc(C(F)(F)F)cc1 [compound 44],>99
7,O=C1SC(=Cc2ccc(O)cc2O)C(=O)N1Cc1ccc(Cl)c(Cl)c1 [compound 45],>99
8,"O=C1SC(=Cc2ccc(O)c(O)c2)C(=O)N1Cc1cc(Br)cc(Br)c1 [compound 46, 5-(3,4-Dihydroxybenzylidene)-3-(3,5-dibromobenzyl)thiazolidine-2,4-dione]",>99
9,O=C1SC(=Cc2cccc(O)c2O)C(=O)N1Cc1cc(Br)cc(Br)c1 [compound 47],>99
10,"O=C1SC(=Cc2ccc(O)c(O)c2)C(=O)N1Cc1cccc([N+](=O)[O-])c1 [compound 48, 5-(3,4-Dihydroxybenzylidene)-3-(3-nitrobenzyl)thiazolidine-2,4-dione]",67
11,O=C1SC(=Cc2cccc(O)c2O)C(=O)N1Cc1cccc([N+](=O)[O-])c1 [compound 49],93
12,"O=C1SC(=Cc2ccc(O)c(O)c2)C(=O)N1Cc1ccc([N+](=O)[O-])cc1 [compound 50, 5-(3,4-Dihydroxybenzylidene)-3-(4-nitrobenzyl)thiazolidine-2,4-dione]",82
13,"O=C1SC(=Cc2cccc(O)c2O)C(=O)N1Cc1ccc([N+](=O)[O-])cc1 [compound 51, 5-(2,3-dihydroxybenzylidene)-3-(4-nitrobenzyl)thiazolidine-2,4-dione]",86
14,O=C1SC(=Cc2cc(O)c(O)c(O)c2)C(=O)N1Cc1cccc([N+](=O)[O-])c1 [compound 52],50
15,O=C1SC(=Cc2cc(O)c(O)c(O)c2)C(=O)N1Cc1cc(Cl)cc(Cl)c1 [compound 54],>99
16,O=C1SC(=Cc2cc([N+](=O)[O-])ccc2O)C(=O)N1Cc1ccc(Cl)c(Cl)c1 [compound 55],77
17,"O=C1SC(=Cc2ccc(O)c(O)c2)C(=O)N1Cc1ccc(C=Cc2cc(C(F)(F)F)cc(C(F)(F)F)c2)cc1 [compound 58, 5-(3,4-Dihydroxybenzylidene)-3-{4-[3,5-bis(trifluoromethyl)styryl]-benzyl}thiazolidine-2,4-dione]",95
18,"O=C1SC(=Cc2ccc(O)c(O)c2)C(=O)N1Cc1ccc(Oc2ccccc2)cc1 [compound 60, 5-(3,4-Dihydroxybenzylidene)-3-(4-phenoxybenzyl)thiazolidine-2,4-dione]",>99
19,O=C(O)c1cccc(-c2ccc(C=C3SC(=S)N(c4cccc(F)c4)C3=O)o2)c1 [compound 62],36
20,O=C1C(=Cc2cc(Cl)ccc2O)SC(=S)N1c1ccccc1 [compound 65],21
21,O=C1SC(=Cc2cccc(O)c2O)C(=O)N1Cc1cc(C(F)(F)F)cc(C(F)(F)F)c1 [compound 70],>99
22,"COc1ccc(OC)c(N2C(=O)C(=Cc3ccc(O)c(O)c3)SC2=S)c1 [compound 75, 5-(3,4-Dihydroxybenzylidene)-3-(2,5-dimethoxyphenyl)rhodanine]",74
23,"COc1ccc(N2C(=O)C(=Cc3ccc(O)c(O)c3)SC2=S)cc1OC [compound 76, 5-(3,4-Dihydroxybenzylidene)-3-(3,4-dimethoxyphenyl)rhodanine]",56
24,"O=C1C(=Cc2ccc(O)c(O)c2)SC(=S)N1c1ccc(O)c(O)c1 [compound 77, 5-(3,4-Dihydroxybenzylidene)-3-(3,4-dihydroxyphenyl)rhodanine]",20
25,"O=C1SC(=Cc2ccc(Cl)c(Cl)c2)C(=O)N1Cc1cc(O)c(O)c(O)c1 [compound 78, 5-(3,4-Dichlorobenzylidene)-3-(3,4,5-trihydroxybenzyl)thiazolidine-2,4-dione]",90

row,Compound,Inhibitory Ratio at 25 μM (%)
1,"CC(=O)Nc1ccc(C=C2SC(=O)N(Cc3ccc(Cl)c(Cl)c3)C2=O)cc1 [compound 79, 5-[4-(acetamido)benzylidene]-3-(3,4-dichlorobenzyl)-thiazolidine-2,4-dione]",65
2,O=C(Nc1ccc(CN2C(=O)SC(=Cc3ccc(O)c(O)c3)C2=O)cc1)c1ccccc1 [compound 83],60
3,"O=C1SC(=Cc2ccc(O)c([N+](=O)[O-])c2)C(=O)N1Cc1ccc(Cl)c(Cl)c1 [compound 85, 5-(4-hydroxy-3-nitrobenzylidene)-3-(3,4-dichlorobenzyl)-thiazolidine-2,4-dione]",>99
4,Nc1cc(C=C2SC(=O)N(Cc3ccc(Cl)c(Cl)c3)C2=O)ccc1O [compound 86],21
5,"O=C1SC(=Cc2ccc([N+](=O)[O-])c(O)c2)C(=O)N1Cc1ccc(Cl)c(Cl)c1 [compound 87, 5-(3-hydroxy-4-nitrobenzylidene)-3-(3,4-dichlorobenzyl)-thiazolidine-2,4-dione]",>99
6,Nc1ccc(C=C2SC(=O)N(Cc3ccc(Cl)c(Cl)c3)C2=O)cc1O [compound 88],65
7,"O=C1SC(=Cc2cccc(O)c2O)C(=O)N1CCc1ccc(Cl)cc1 [compound 90, 5-(2,3-Dihydroxybenzylidene)-3-[2-(4-chlorophenyl)ethyl]thiazolidine-2,4-dione]",>99
8,"O=C(CN1C(=O)SC(=Cc2ccc(O)c(O)c2)C1=O)c1ccc(Cl)cc1Cl [compound 92, 5-(3,4-Dihydroxybenzylidene)-3-[(2,4-dichlorobenzoyl)-methyl]thiazolidine-2,4-dione]",>99
9,O=C1C(=Cc2cc(Br)cc(Br)c2O)C(O)=NN1c1ccccc1 [compound 101],28
10,CC1=NN(c2ccc(Cl)c(Cl)c2)C(=O)C1=Cc1cc(Br)ccc1O [compound 102],63
11,CCOc1cc(C=C2C(=O)N(c3cccc(C(=O)O)c3)N=C2C)ccc1OC(=O)c1cccs1 [compound 103],>99
12,"CC(C)C1=NN(c2cc(Cl)cc(Cl)c2)C(=O)C1=Cc1cccc(O)c1O [compound 104, 4-(2,3-Dihydroxybenzylidene)-1-(3,5-dichlorophenyl)-3-isopropyl-2-pyrazolin-5-one]",92
13,CC(C)C1=NN(c2cc(Cl)cc(Cl)c2)C(=O)C1=Cc1cc(Br)cc(Br)c1O [compound 105],>99
14,CC(C)C1=NN(c2cc(Cl)cc(Cl)c2)C(=O)C1=Cc1ccc(O)c(C(=O)O)c1 [compound 106],>99
15,CC(C)C1=NN(c2cc(Cl)cc(Cl)c2)C(=O)C1=Cc1ccc(O)c(O)c1 [compound 107],>99
16,"COC(=O)c1cccc(N2N=C(C(C)C)C(=Cc3cc(Br)cc(Br)c3O)C2=O)c1 [compound 108, 4-(3,5-Dibromo-2-hydroxybenzylidene)-1-[3-(Methoxycarbonyl)phenyl]-3-isopropyl-2-pyrazolin-5-one]",27
17,"CC1=NN(c2cc(Cl)cc(Cl)c2)C(=O)C1=Cc1ccc(O)c(O)c1 [compound 112, 4-(3,4-Dihydroxybenzylidene)-1-(3,5-dichlorophenyl)-3-methyl-2-pyrazolin-5-one]",>99
18,CC1=NN(c2cccc(C(F)(F)F)c2)C(=O)C1=Cc1ccc(O)c(O)c1 [compound 113],68
19,CCOC1=NN(c2ccc([N+](=O)[O-])cc2)C(=O)C1=Cc1ccc(O)c(O)c1 [compound 116],>99
20,CC1=NN(c2cccc(Cl)c2)C(=O)C1=Cc1ccc(O)c(O)c1 [compound 117],46
21,"CC(C)C1=NN(c2cc(C(F)(F)F)cc(C(F)(F)F)c2)C(=O)C1=Cc1ccc(O)c(O)c1 [compound 118, 4-(3,4-Dihydroxybenzylidene)-1-[3,5-bis(trifluoromethyl)phenyl]-3-isopropyl-2-pyrazolin-5-one]",>99
22,"Cc1ccc(N2N=C(C(C)C)C(=Cc3ccc(O)c(O)c3)C2=O)cc1Cl [compound 119, 4-(3,4-Dihydroxybenzylidene)-1-(3-chloro-4-methylphenyl)-3-isopropyl-2-pyrazolin-5-one]",>99
23,Cc1ccc(N2N=C(C(C)C)C(=Cc3cccc(O)c3)C2=O)cc1Cl [compound 121],80
24,CC1=NN(c2cccc(C(F)(F)F)c2)C(=O)C1=Cc1cccc(O)c1 [compound 122],35
